Test results: the supplement of paper PMC10307832

Tests used:
Experiment in all cases: relative viability (nuclei count vs DMSO), 5 days (fraction); higher = more cells survive
[1] = compound: C[As](C)SC[C@H](NC(=O)CC[C@H](N)C(=O)O)C(=O)NCC(=O)O [Darinaparsin] + CCNC(=O)c1noc(-c2cc(C(C)C)c(O)cc2O)c1-c1ccc(CN2CCOCC2)cc1 [Luminespib] (partner 0.01 µM)
Outline: (§1)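 Lung cancer cell lines in 1536-well plates were dosed by pin tool the day after seeding, either with one drug alone or with a fixed anchor-drug dose plus five library-drug doses (not always all listed) in √10 steps. After 5 days, cells were fixed and their nuclei stained in one step (final 0.05% Triton X-100, 1% formaldehyde, 1 ug/ml Hoechst), then counted on 4× images. Relative viability is the nuclei count in treated wells divided by that in vehicle wells. Values are medians of duplicate plates.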

AZ628 + Linsitinib = compound: CC1=C(C=C(C=C1)NC(=O)C2=CC(=CC=C2)C(C)(C)C#N)NC3=CC4=C(C=C3)N=CN(C4=O)C [AZ628] + C[C@]1(O)C[C@@H](c2nc(-c3ccc4ccc(-c5ccccc5)nc4c3)c3c(N)nccn32)C1 [Linsitinib] (partner 1 µM)
Outline: as §1

[2] = compound: C[As](C)SC[C@H](NC(=O)CC[C@H](N)C(=O)O)C(=O)NCC(=O)O [Darinaparsin] + Nc1nc2[nH]cc(CCc3ccc(C(=O)N[C@@H](CCC(=O)O)C(=O)O)cc3)c2c(=O)[nH]1 [Pemetrexed] (partner 0.2 µM)
Outline: as §1

Darinaparsin + OSI-027 = compound: C[As](C)SC[C@H](NC(=O)CC[C@H](N)C(=O)O)C(=O)NCC(=O)O [Darinaparsin] + COc1cccc2cc(-c3nc([C@H]4CC[C@H](C(=O)O)CC4)n4ncnc(N)c34)[nH]c12 [OSI-027] (partner 0.5 µM)
Outline: as §1

Row | Cell Line | relative viability ([1]; first compound 0.08 µM) | relative viability ([1]; first compound 0.8 µM) | relative viability ([1]; first compound 2.53 µM) | relative viability ([1]; first compound 8 µM) | relative viability (AZ628 + Linsitinib; first compound 0.08 µM) | relative viability (AZ628 + Linsitinib; first compound 0.253 µM) | relative viability (AZ628 + Linsitinib; first compound 0.8 µM) | relative viability (AZ628 + Linsitinib; first compound 2.53 µM) | relative viability (AZ628 + Linsitinib; first compound 8 µM) | relative viability ([2]; first compound 0.08 µM) | relative viability ([2]; first compound 0.8 µM) | relative viability ([2]; first compound 2.53 µM) | relative viability ([2]; first compound 8 µM) | relative viability (Darinaparsin + OSI-027; first compound 0.08 µM) | relative viability (Darinaparsin + OSI-027; first compound 0.8 µM) | relative viability (Darinaparsin + OSI-027; first compound 2.53 µM) | relative viability (Darinaparsin + OSI-027; first compound 8 µM)
1 | NCI-H838 | 0.29 | 0.265 | 0.284 | 0.283 | 0.995 | 0.977 | 1.11 | 0.896 | 0.883 | 0.272 | 0.223 | 0.245 | 0.247 | 0.401 | 0.34 | 0.458 | 0.428
2 | NCI-H1993 | 0.957 | 0.698 | 0.724 | 0.723 | 0.761 | 0.59 | 0.716 | 0.824 | 0.711 | 0.617 | 0.66 | 0.599 | 0.64 | 0.542 | 0.527 | 0.493 | 0.551
3 | NCI-H1563 | 0.588 | 0.429 | 0.495 | 0.473 | 1.3 | 1.18 | 1.23 | 1.29 | 1.29 | 0.761 | 0.765 | 0.669 | 0.866 | 0.752 | 0.735 | 0.71 | 0.708
4 | HARA | 1.19 | 0.684 | 0.659 | 0.773 | 0.774 | 0.847 | 0.888 | 0.934 | 0.309 | 0.269 | – | 0.22 | 0.294 | 0.68 | 0.502 | 0.54 | 0.572
5 | PC-3 [JPC-3] | 0.807 | 0.721 | 0.698 | 0.87 | 0.893 | 0.971 | 1.01 | 1.04 | 0.952 | 1.43 | 1.02 | 1.04 | 1.04 | 0.844 | 0.781 | 0.734 | 0.788
6 | NCI-H441 | 0.488 | 0.321 | 0.364 | 0.245 | 0.64 | 0.494 | 0.549 | 0.425 | 0.396 | 0.264 | 0.239 | 0.279 | 0.246 | 0.79 | 0.719 | 0.555 | 0.613
7 | NCI-H1793 | 0.238 | 0.162 | 0.161 | 0.175 | 1.32 | 1.11 | 1.09 | 0.687 | 0.602 | 1.01 | 0.89 | – | 1.05 | 0.329 | 0.254 | 0.27 | 0.309
8 | NCI-H2126 | 0.984 | 1.02 | 0.722 | 0.931 | 0.762 | 0.746 | 0.776 | 0.721 | 0.664 | 0.74 | 0.594 | 0.666 | 0.805 | 0.726 | 0.764 | 0.635 | 0.639
9 | BEN | 0.409 | 0.366 | 0.511 | 0.522 | 1.1 | 0.864 | 0.793 | 0.903 | 0.772 | 0.873 | 0.848 | 0.818 | 0.859 | 0.312 | 0.306 | 0.281 | 0.299
10 | LCLC-103H | 1.14 | 0.876 | 0.882 | 1.22 | 1.02 | 1.15 | 1.15 | 1.07 | 1.04 | 0.466 | 0.422 | 0.448 | 0.422 | 0.481 | 0.465 | 0.414 | 0.531
11 | NCI-H596 | 1.14 | 1.12 | 0.951 | 0.966 | 1.03 | 1.12 | 0.982 | 1.1 | 1.22 | 0.513 | 0.533 | 0.479 | 0.508 | 0.766 | 0.845 | 0.647 | 0.762
12 | NCI-H1944 | 0.84 | 0.705 | 0.686 | 0.676 | 1.21 | 1.14 | 0.987 | 0.876 | 0.703 | 0.663 | 0.687 | 0.649 | 0.57 | 0.413 | 0.372 | 0.399 | 0.437
13 | HCC-827 | 0.812 | 0.704 | 0.59 | 0.936 | 0.979 | 1.01 | 1.01 | 0.973 | 0.918 | 0.256 | 0.268 | 0.254 | 0.263 | 0.705 | 0.837 | 0.626 | 0.766
14 | NCI-H1915 | 1.04 | 0.795 | 0.625 | 0.827 | 1.08 | 1.11 | 1.07 | 0.85 | 0.683 | 0.495 | 0.446 | 0.494 | 0.662 | 0.741 | 0.649 | 0.644 | 0.749
15 | NCI-H2347 | 1.01 | – | 0.414 | 0.388 | 0.719 | 0.928 | 0.741 | 0.792 | 0.639 | 0.444 | 0.396 | 0.408 | 0.477 | 0.398 | – | 0.424 | 0.407
16 | NCI-H647 | 0.176 | 0.154 | 0.0855 | 0.215 | 1.36 | 1.27 | 1.07 | 1.19 | 1.05 | 0.189 | 0.156 | 0.166 | 0.146 | 0.625 | 0.59 | 0.545 | 1.08
17 | CAL-12T | 0.182 | 0.429 | 0.429 | 0.761 | 0.788 | 0.677 | 0.585 | 0.679 | 0.357 | 1.65 | 1.08 | 1.17 | 1.38 | 0.756 | 0.539 | 0.737 | 0.569
